Results taken from patent publication US10828305B2 (SHANGHAI PHARMACEUTICALS HOLDING CO., LTD., priority 2016, dated 2020).

What was measured:
[1] = molecular target: ErbB2 kinase (Homo sapiens, UniProt P04626); assay: Enzymatic experiment on ErbB2 (HTRF kinEASE-TK); format: biochemical; conditions: ATP 4 μM; read-out: Kinase IC50 (nM) in vitro ErbB2
Procedure: (§1) Enzymatic Experiment on EGFR/ErbB2
(§2) Firstly, preparing 1× reaction buffer required for the kinase, 5× Enzymatic buffer (HEPES 20 mM pH7.0, NaN3 0.1%, BSA 0.05%, sodium orthovanadate 0.5 mM) in the HTRF kinEASE-TK kit was diluted to 1 time with deionized water, 50 nM Supplement Enzymatic buffer (SEB reagent), 1 mM MnCl2, 5 mM MgCl2 and 1 mM DTT were added. Secondly, preparing 5× compound, 10 mM test compound stock solution was diluted in multiple steps with DMSO in a 96-well compound plate to prepare 100× compound as initial concentration, which was then used as the first concentration to perform a 3-fold gradient dilution with DMSO to obtain 10 concentrations. Afterwards, 1 μl gradient dilution was added to 19 μl 1× reaction buffer to prepare 5× compound for use. Then 2 μl 5× compound was transferred from the 96 well plate into a 384-well plate. To the compound-free control wells was added with 2 μl the following liquid: 19 μl 1× reaction buffer with addition of 1 μl DMSO. To the blank control wells was added 2 μl 250 mM EDTA. The third step was enzymatic reaction, the kinase, substrate (TK Substrate-biotin) and ATP were formulated into 2.5× enzyme/substrate mixture and 2.5×ATP solution using 1× reaction buffer respectively. The final concentration of ErbB2 kinase was 0.06 ng/μl, the final concentration of ATP was 4 μM; the final concentration of EGFR kinase was 0.06 units/μl, the final concentration of ATP was 1.65 μM; 4 μl 2.5× enzyme/substrate mixture was added to a 384-well plate, which was incubated at room temperature for 5 minutes; 4 μl 2.5×ATP solution was added to each well and the mixture was allowed to react for 30 minutes at room temperature. The fourth step was termination of the reaction, HTRF Detection buffer was used to prepare a mixture of 2×TK Antibody-Eu(K) and Sa-XL665, the amount of TK Antibody-Eu(K) was 5 μl per well. After the enzymatic reaction was performed for 30 minutes, 10 μl of the above liquid was added to the 384-well plate and the mixture was allowed to react at room temperature for 1 hour. The data was measured on EnVision™, the laser of 337 nm wavelength was selected as the excitation light, RFU665 nM and RFU620 nM were measured, and […]/RFU620 nM×10000 was used as the final data for analysis.

[2] = molecular target: EGFR kinase (Homo sapiens, UniProt P00533); assay: Enzymatic experiment on EGFR (HTRF kinEASE-TK); format: biochemical; conditions: ATP 1.65 μM; read-out: Kinase IC50 (nM) in vitro EGFR
Chain of EGFR kinase (P00533 25-1210): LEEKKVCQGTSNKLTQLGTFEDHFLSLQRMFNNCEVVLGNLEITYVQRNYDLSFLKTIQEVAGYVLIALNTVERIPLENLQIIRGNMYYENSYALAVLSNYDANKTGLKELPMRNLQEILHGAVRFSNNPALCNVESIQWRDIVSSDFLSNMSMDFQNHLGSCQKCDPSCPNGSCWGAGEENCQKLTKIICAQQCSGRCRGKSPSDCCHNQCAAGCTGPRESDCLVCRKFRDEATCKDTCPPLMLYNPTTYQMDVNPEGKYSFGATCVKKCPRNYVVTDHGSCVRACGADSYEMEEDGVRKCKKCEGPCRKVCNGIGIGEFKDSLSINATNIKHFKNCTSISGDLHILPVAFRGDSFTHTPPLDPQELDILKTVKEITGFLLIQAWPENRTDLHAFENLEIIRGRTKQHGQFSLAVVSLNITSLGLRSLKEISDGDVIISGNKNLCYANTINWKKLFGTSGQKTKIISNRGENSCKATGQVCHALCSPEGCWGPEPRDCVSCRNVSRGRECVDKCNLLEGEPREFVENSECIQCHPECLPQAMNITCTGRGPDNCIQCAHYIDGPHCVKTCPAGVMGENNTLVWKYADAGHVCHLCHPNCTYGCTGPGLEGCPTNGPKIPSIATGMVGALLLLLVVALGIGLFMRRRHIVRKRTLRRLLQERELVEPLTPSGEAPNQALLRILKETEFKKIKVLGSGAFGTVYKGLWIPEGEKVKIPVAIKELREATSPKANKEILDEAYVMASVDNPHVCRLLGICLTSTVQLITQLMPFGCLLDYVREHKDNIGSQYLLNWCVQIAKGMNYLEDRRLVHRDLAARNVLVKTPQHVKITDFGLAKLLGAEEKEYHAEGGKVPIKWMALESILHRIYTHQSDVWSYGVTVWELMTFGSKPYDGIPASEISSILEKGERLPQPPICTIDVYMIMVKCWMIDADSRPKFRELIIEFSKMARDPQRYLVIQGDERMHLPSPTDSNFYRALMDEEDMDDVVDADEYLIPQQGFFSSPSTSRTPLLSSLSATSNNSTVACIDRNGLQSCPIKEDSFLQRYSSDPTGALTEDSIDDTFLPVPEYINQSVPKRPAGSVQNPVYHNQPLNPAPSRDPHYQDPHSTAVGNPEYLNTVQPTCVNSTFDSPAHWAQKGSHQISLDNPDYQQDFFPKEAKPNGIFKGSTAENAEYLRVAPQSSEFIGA
Procedure: as §1, §2

[3] = system: N87; assay: Proliferation inhibition assay in vitro, N87 (CellTiter-Glo); format: cell-based; conditions: Homo sapiens; 72 hours; read-out: IC50(nM) cell N87
Procedure: (§3) Proliferation Inhibition Assay In Vitro of Cell Lines
(§4) 1. Cell culture and inoculation: on the first day of the experiment, normal cultured cells were taken in the exponential growth phase, the cells were dispersed by digesting, then the cell density was adjusted to 8.8×10^4 cells/mL for BT-474 and 6.6×10^4 cells/mL for N87, 90 μl of which were inoculated to each well in a 96-well cell culture plate; after inoculation, the microplate was placed at condition of 37° C., 5% CO2 overnight. 2. Dosing to cells: on the second day of the experiment, the microplate was taken out from incubator, […], of 10× compound was separately added to each well of the microplate, 2 duplicated wells were set for each concentration, 9 dosing concentrations were set for each compound. According to different cell lines, the initial concentration of each compound was different. Upon completion of addition, the microplate was placed at condition of 37° C., 5% CO2 for 72 hours. 3. Data acquisition: the microplate was taken out from the incubator and allowed to stand at room temperature to equilibrate for 30 minutes. 100 μl CellTiter-Glo® Luminescent Cell Viability Assay reaction solution which had been equilibrated at room temperature was added to each well and the microplate was shaken at 1300 rpm for 2 minutes at room temperature. The microplate was centrifuged at 2000 rpm for 1 minute in a HERAEUS Multifuge X1R and then allowed to equilibrate at room temperature for 10 minutes. The […] signal was measured on EnVision™.

[4] = system: BT-474; assay: Proliferation inhibition assay in vitro, BT-474 (CellTiter-Glo); format: cell-based; conditions: Homo sapiens, 72 hours, read-out: IC50(nM) cell BT-474
Procedure: as §3, §4

Chain of ErbB2 kinase (P04626 23-1255): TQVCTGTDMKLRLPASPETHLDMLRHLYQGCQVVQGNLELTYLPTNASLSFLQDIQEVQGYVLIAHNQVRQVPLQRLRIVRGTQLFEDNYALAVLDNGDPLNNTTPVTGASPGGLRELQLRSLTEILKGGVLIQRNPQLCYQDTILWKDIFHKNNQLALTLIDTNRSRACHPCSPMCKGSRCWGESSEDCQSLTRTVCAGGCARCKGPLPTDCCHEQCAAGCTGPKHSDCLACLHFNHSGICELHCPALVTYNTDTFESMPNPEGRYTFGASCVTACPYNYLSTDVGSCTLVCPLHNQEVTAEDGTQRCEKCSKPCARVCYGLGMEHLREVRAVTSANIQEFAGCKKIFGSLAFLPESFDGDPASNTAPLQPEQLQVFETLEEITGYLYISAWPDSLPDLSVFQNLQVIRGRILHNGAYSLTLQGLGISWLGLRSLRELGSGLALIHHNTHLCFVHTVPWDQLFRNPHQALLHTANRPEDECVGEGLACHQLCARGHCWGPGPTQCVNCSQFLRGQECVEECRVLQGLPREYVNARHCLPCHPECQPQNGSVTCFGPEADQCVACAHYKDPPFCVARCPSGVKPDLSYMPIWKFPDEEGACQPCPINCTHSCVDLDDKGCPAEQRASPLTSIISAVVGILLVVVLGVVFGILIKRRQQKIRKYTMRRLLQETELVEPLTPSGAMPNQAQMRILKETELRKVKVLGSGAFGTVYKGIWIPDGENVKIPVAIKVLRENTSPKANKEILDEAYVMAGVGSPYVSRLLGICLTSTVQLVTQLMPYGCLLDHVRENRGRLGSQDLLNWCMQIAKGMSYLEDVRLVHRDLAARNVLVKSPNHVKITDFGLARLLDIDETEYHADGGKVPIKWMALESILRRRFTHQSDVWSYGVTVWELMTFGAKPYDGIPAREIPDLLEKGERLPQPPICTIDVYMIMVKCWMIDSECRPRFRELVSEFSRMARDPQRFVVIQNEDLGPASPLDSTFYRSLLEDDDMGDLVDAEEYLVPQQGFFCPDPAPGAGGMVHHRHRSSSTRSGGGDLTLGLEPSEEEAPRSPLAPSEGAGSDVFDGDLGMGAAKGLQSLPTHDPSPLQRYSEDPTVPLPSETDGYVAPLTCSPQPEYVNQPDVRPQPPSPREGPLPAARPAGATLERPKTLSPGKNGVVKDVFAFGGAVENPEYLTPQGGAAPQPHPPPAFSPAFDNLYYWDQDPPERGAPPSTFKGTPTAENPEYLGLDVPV

SMILES	IC50 [1] [nM]	IC50 [2] [nM]	IC50 [4] [nM]	IC50 [3] [nM]
CC1(C)COC(Nc2ccc3ncnc(Nc4ccc(Oc5cc6nncn6cn5)c(C(F)(F)F)c4)c3c2)=N1 [Embodiment 81, N^4-(3-trifluoromethyl-4-([1,2,4]triazolo[4,3-c]pyrimidin-7-yloxy)phenyl)-N^6-(4,4-dimethyl-4,5-dihydrooxazol-2-yl)quinazolin-4,6-diamine]	16.6	51.9	1270	749
Cc1cc(Nc2ncnc3ccc(NC4=NC(C)(C)CO4)cc23)ccc1Oc1cc2nccn2cn1 [Embodiment 3, N^6-(4,4-dimethyl-4,5-dihydrooxazol-2-yl)-N^4-(4-(imidazo[1,2-c]pyrimidin-7-yloxy)-3-methylphenyl)quinazoline-4,6-diamine]	1.1	18.7	38.5	48.7
Cc1cc(Nc2ncnc3ccc(-c4ccc(CN(C)CCS(C)(=O)=O)o4)cc23)ccc1Oc1cc2nncn2cn1 [Embodiment 105]	1.2	26	22.9	17.3
CNC(=O)CN1CCC(Oc2cc3c(Nc4ccc(Oc5cc6nncn6cn5)c(C)c4)ncnc3cc2OC)CC1 [Embodiment 32, 2-(4-(7-methoxy-4-(3-methyl-4-([1,2,4]triazolo[4,3-c]pyrimidin-7-yloxy)anilino)quinazolin-6-yl)oxy-1-piperidinyl)-N-methylacetamide]	4.3	2	92.6	440
Cc1cc(Nc2ncnc3ccc(-c4cccc(NC(=O)/C=C/c5cccnc5)c4)cc23)ccc1Oc1cc2nncn2cn1 [Embodiment 51, (E)-N-(3-(4-((4-([1,2,4]triazolo[4,3-c]pyrimidin-7-yloxy)-3-methylphenyl)amino)quinazolin-6-yl)phenyl)-3-(pyridin-3-yl)acryiamide]	8.41	47.1	108	93.7
C=C(F)C(=O)Nc1cc2c(Nc3ccc(Oc4cc5nncn5cn4)c(C)c3)ncnc2cc1OCC [Embodiment 127, N-(4-((4-([1,2,4]triazolo[4,3-c]pyrimidin-7-yloxy)-3-methylphenyl)amino)-7-ethoxyquinazolin-6-yl)-2-fluoroacrylamide]	5.6	6.6	8	30.7
CC1(C)COC(Nc2ccc3ncnc(Nc4ccc(Oc5cc6nncn6cn5)c(F)c4)c3c2)=N1 [Embodiment 19, N^4-(4-([1,2,4]triazolo[4,3-c]pyrimidin-7-yloxy)-3-fluorophenyl)-N^6-(4,4-dimethyl-4,5-dihydrooxazol-2-yl)-quinazoline-4,6-diamine]	3.3	22.1	98.2	125
Cc1cc(Nc2ncnc3ccc(NC4=NC(C)(C)CO4)cc23)cc(C)c1Oc1cc2nncn2cn1 [Embodiment 126, N^4-(4-([1,2,4]triazolo[4,3-c]pyrimidin-7-yloxy)-3,5-dimethylphenyl)-N^6-(4,4-dimethyl-4,5-dihydrooxazol-2-yl)quinazolin-4,6-diamine]	6.7	53	143	82.9

Continued, in another order:

IC50 [1] [nM]	IC50 [2] [nM]	IC50 [4] [nM]	SMILES	IC50 [3] [nM]
3	89.4	21.8	C=C(C)C(=O)Nc1ccc2ncnc(Nc3ccc(Oc4cc5nncn5cn4)c(C)c3)c2c1 [Embodiment 84, N-(4-((4-([1,2,4]triazolo[4,3-c]pyrimidin-7-yloxy)-3-methylphenyl)amino)quinazolin-6-yl)-methacrylamide]	31.1
1	15.9	28.4	C=CC(=O)Nc1cc(-c2ccc3ncnc(Nc4ccc(Oc5cc6nncn6cn5)c(C)c4)c3c2)ccn1 [Embodiment 55, N-(4-(4-((4-([1,2,4]triazolo[4,3-c]pyrimidin-7-yloxy)-3-methylphenyl)amino)quinazolin-6-yl)pyridin-2-yl)acrylamide]	122
4.9	17.3	141	Cc1cc(Nc2ncnc3ccc(NC4=NC5(CO4)CN(C)C5)cc23)ccc1Oc1cc2nncn2cn1 [Embodiment 30, N^4-(4-([1,2,4]triazolo[4,3-c]pyrimidin-7-yloxy)-3-methylphenyl)-N^6-(2-methyl-7-oxa-2,5-diazaspiro[3.4]oct-5-en-6-yl)quinazoline-4,6-diamine]	771
2.2	43.5	140	Cc1cc(Nc2ncnc3ccc(-c4ccco4)cc23)ccc1Oc1cc2nncn2cn1 [Embodiment 21, N-(4-([1,2,4]triazolo[4,3-c]pyrimidin-7-yloxy)-3-methylphenyl)-6-(furan-2-yl)-quinazolin-4-amine]	73.8
6.4	370	32.8	C=CC(=O)Nc1ccc(-c2ccc3ncnc(Nc4ccc(Oc5cc6nncn6cn5)c(C)c4)c3c2)cn1 [Embodiment 54, N-(5-(4-((4-([1,2,4]triazolo[4,3-c]pyrimidin-7-yloxy)-3-methylphenyl)amino)quinazolin-6-yl)pyridin-2-yl)acrylamide]	150
2.76	26.9	38.8	Cc1cc(Nc2ncnc3ccc(NC4=N[C@@H](C(C)C)CO4)cc23)ccc1Oc1cc2nncn2cn1 [Embodiment 91, (S)—N^4-(4-([1,2,4]triazolo[4,3-c]pyrimidin-7-yloxy)-3-methylphenyl)-N^6-(4-isopropyl-4,5-dihydrooxazol-2-yl)quinazolin-4,6-diamine]	76.8
2.4	43.3	85.8	Cc1coc(NC(=O)Nc2ccc3ncnc(Nc4ccc(Oc5cc6nncn6cn5)c(C)c4)c3c2)n1 [Embodiment 74, 1-(4-((4-([1,2,4]triazolo[4,3-c]pyrimidin-7-yloxy)-3-methylphenyl)amino)quinazolin-6-yl)-3-(4-methyloxazol-2-yl)urea]	106
3.2	157	177	Cc1cc(NC(=O)Nc2ccc3ncnc(Nc4ccc(Oc5cc6nncn6cn5)c(C)c4)c3c2)no1 [Embodiment 67, 1-(4-((4-([1,2,4]triazolo[4,3-c]pyrimidin-7-yloxy)-3-methylphenyl)amino)quinazolin-6-yl)-3-(5-methylisoxazol-3-yl)urea]	264
1.2	14.9	17.4	Cc1cc(Nc2ncnc3ccc(-c4ccc(CNCCS(C)(=O)=O)o4)cc23)ccc1Oc1cc2nncn2cn1 [Embodiment 15, N-(4-([1,2,4]triazolo[4,3-c]pyrimidin-7-yloxy)-3-methylphenyl)-6-(5-(((2-(methylsulfonyl)ethyl)amino)methyl)furan-2-yl)quinazolin-4-amine]	33.2
2.1	8.2	55.6	COCC(=O)Nc1cccc(-c2ccc3ncnc(Nc4ccc(Oc5cc6nncn6cn5)c(C)c4)c3c2)c1 [Embodiment 34, N-(3-(4-((4-([1,2,4]triazolo[4,3-c]pyrimidin-7-yloxy)-3-methylphenyl)amino)quinazoline-6-yl)phenyl)-2-methoxyacetamide]	46.3
